Entries after “also recorded” stand apart in the source; their conditions may differ. Where two headings read alike, the source gives them in different places.

The subject of data set [1] is rat spared nerve injury (SNI) model. Format: in vivo.
The test system is the same in data set [2]. In kind it is in vivo. This is another data set of the same source.
The subject of another data set is naïve male SD rats. Conditions: tat-CSM-1S by spinal delivery, over a 24 hour period.
Data set [3] concerns rat dorsal root ganglion (DRG) neurons. In words: Ouabain-induced increase in cytosolic Na+ (SBFI imaging) in DRG neurons. In kind it is cell-based.
The mark [4] stands for this setting: SNI rats, dose not given, p<0.05 vs BL-Post SNI.

As to `NCC1(CC(=O)O)CCCCC1` [gabapentin], the “antihyperalgesic effect in SNI (reference drugs)” value in data set [1] (setting [4]) is “Antihyperalgesic effects”. The “antiallodynic effect in SNI (reference drugs)” value in data set [2] (setting [4]) is listed as “Antiallodynic effects”. Further, the “motor impairment / sedation on the rotarod” value in the data set with naïve male SD rats is recorded as “decrease in the ability of naïve rats to remain on the rotating rod”; with naïve male SD rats (listed as Gabapentin), “significant sedation/motor impairment”.
For the compound `CN1CC[C@]23c4c5ccc(O)c4O[C@H]2[C@@H](O)C=C[C@H]3[C@H]1C5` [morphine], the “antihyperalgesic effect in SNI (reference drugs)” value in data set [1] (rat, in vivo) was “Antihyperalgesic effects”. The “antiallodynic effect in SNI (reference drugs)” value in data set [2] (rat, in vivo) is on record as “Antiallodynic effects”.
With `NC1=N[C@H](O)[C@H]2[C@H]3O[C@]4(O)O[C@@H]([C@@H](O)[C@@]2(N1)[C@@H]4O)[C@]3(O)CO` [tetrodotoxin], the “ouabain-induced increase in [Na+]c” value in data set [3] was “inhibited; also recorded: attenuate”.
Take “Protox-II: a spider toxin that preferentially blocks NaV1.7 (YCQKWMWTCDSERKCCEGMVCRLWCKKKLW)”: the “ouabain-induced increase in [Na+]c” value in data set [3] (10 μM Protox-II, 1 mM ouabain) is on record as “inhibited; also recorded: attenuate”.

The record behind these values is patent US10287334B2, “Non-narcotic CRMP2 peptides targeting sodium channels for chronic pain” (priority 2014, dated 2019).
